Reference: patent US8710224B2, “Heterocyclic compounds as CCR2B antagonists” (AstraZeneca AB, priority 2004, dated 2014)

Target: T1, recombinant human CCR5 receptor (Homo sapiens, UniProt P51681)
T1 construct: expressed in transfected cells; host or cells: Chinese hamster ovary (CHO) cells; membranes
Assay: Radioligand binding assay for inhibition of the binding of MIP-1α
Details: displacement of 0.1 nM iodinated MIP-1α; membranes of Chinese hamster ovary cells expressing CCR5
In short: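 Membranes from CHO cells expressing recombinant human CCR5 were incubated with 0.1 nM iodinated MIP-1α, scintillation proximity beads and compound at various concentrations. Bound radioligand was measured by scintillation counting.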

T1 sequence (P51681 whole entry): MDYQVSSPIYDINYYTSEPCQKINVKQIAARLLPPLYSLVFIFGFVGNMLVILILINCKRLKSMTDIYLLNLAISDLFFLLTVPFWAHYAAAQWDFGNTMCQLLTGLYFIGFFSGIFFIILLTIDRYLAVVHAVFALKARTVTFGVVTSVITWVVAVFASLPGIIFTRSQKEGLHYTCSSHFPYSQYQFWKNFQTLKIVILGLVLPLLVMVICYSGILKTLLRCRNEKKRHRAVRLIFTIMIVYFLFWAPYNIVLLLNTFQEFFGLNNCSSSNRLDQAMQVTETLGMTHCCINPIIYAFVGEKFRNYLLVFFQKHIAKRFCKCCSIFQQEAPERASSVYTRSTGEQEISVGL

Compound	IC50
O=C(Nc1ccc(Cl)c(Cl)c1)N1CCN(C(=O)C2CCN([C@H]3CC[C@](O)(c4ccccn4)CC3)C2)CC1 (stereo partly shown) [Example 146, N-(3,4-dichlorophenyl)-4-{[1-(4-hydroxy-4-pyridin-2-ylcyclohexyl)pyrrolidin-3-yl]carbonyl}piperazine-1-carboxamide]	< 10 µM
CC(C)CC(C)N1CCOC(CN2CCN(C(=O)Nc3ccc(F)c(Cl)c3)CC2)C1 (stereo in doubt) [Example 259, N-(3-chloro-4-fluorophenyl)-4-({(2R)-4-[(1R)-1,3-dimethylbutyl]morpholin-2-yl}methyl)piperazine-1-carboxamide]	< 10 µM
C=C(C)CN1CCN[C@@H](C(=O)N2CCN(C(=O)Nc3ccc(Cl)c(Cl)c3)CC2)C1 [Example 304, N-(3,4-dichlorophenyl)-4-{[(2R)-4-(2-methylprop-2-en-1-yl)piperazin-2-yl]carbonyl}piperazine-1-carboxamide]	< 10 µM
N#C/N=C(\Nc1ccc(Cl)c(Cl)c1)N1CCN(C[C@@H]2CCCN(CCc3ccccc3)C2)CC1 [Example 79, N-cyano-N-(3,4-dichlorophenyl)-4-{[(3R)-1-(2-phenylethyl)piperidin-3-yl]methyl}piperazine-1-carboximidamide]	< 10 µM
CC(C)N1CCO[C@@H](CN2CCN(C(=O)Nc3ccc(C(F)(F)F)nc3)CC2)C1 [Example 192, 4-{[(2S)-4-isopropylmorpholin-2-yl]methyl}-N-[6-(trifluoromethyl)pyridin-3-yl]piperazine-1-carboxamide]	< 10 µM
CC(C)N1CCN[C@@H](C(=O)N2CCN(C(=O)Nc3ccc(C(F)(F)F)cc3)CC2)C1 [Example 212, 4-{[(2R)-4-isopropylpiperazin-2-yl]carbonyl}-N-[4-(trifluoromethyl)phenyl]piperazine-1-carboxamide]	< 10 µM
O=C(Nc1ccc(Cl)cc1)N1CCN(C[C@@H]2CCCN(CCc3ccccc3)C2)CC1 [Example 181, N-(4-chlorophenyl)-4-{[(3R)-1-(2-phenylethyl)piperidin-3-yl]methyl} piperazine-1-carboxamide]	< 10 µM
C[C@H](CC1CCCC1)N1CCO[C@@H](CN2CCN(C(=O)Nc3ccc(F)c(Cl)c3)CC2)C1 [Example 234, N-(3-chloro-4-fluorophenyl)-4-({(2S)-4-[(1R)-2-cyclopentyl-1-methylethyl]morpholin-2-yl}methyl)piperazine-1-carboxamide]	< 10 µM
CCN1CCN[C@@H](C(=O)N2CCN(C(=O)Nc3ccc(Cl)cc3)CC2)C1 [Example 131, N-(4-Chlorophenyl)-4-{[(2R)-4-ethylpiperazin-2-yl]carbonyl}piperazine-1-carboxamide]	< 10 µM
CC(C)N1CCN[C@@H](C(=O)N2CCN(C(=O)Nc3cccc(Oc4ccccc4)c3)CC2)C1 [Example 260, 4-{[(2R)-4-Isopropylpiperazin-2-yl]carbonyl}-N-(3-phenoxyphenyl) piperazine-1-carboxamide]	< 10 µM
CC(C)N1CCN[C@@H](C(=O)N2CCN(C(=O)Nc3ccc(Cl)c(F)c3)CC2)C1 [Example 265, N-(4-Chloro-3-fluorophenyl)-4-{[(2R)-4-isopropylpiperazin-2-yl]carbonyl}piperazine-1-carboxamide]	< 10 µM
CC(C)N1CCN[C@@H](C(=O)N2CCN(C(=O)Nc3ncc(Cl)s3)CC2)C1 [Example 264, N-(5-Chloro-1,3-thiazol-2-yl)-4-{[(2R)-4-isopropylpiperazin-2-yl]carbonyl}piperazine-1-carboxamide]	< 10 µM
O=C(Nc1ccc(Cl)c(Cl)c1)N1CCN(C[C@@H]2CCCN(CC(c3ccccc3)c3ccccc3)C2)CC1 [Example 153, N-(3,4-Dichlorophenyl)-4-{[(3R)-1-(2,2-diphenylethyl)piperidin-3-yl]methyl}piperazine-1-carboxamide]	< 10 µM
C[C@@H](Cc1ccc(F)cc1)N1CCO[C@@H](CN2CCN(C(=O)Nc3ccc(F)c(Cl)c3)CC2)C1 [Example 233, N-(3-chloro-4-fluorophenyl)-4-({(2S)-4-[(1S)-2-(4-fluorophenyl)-1-methylethyl]morpholin-2-yl}methyl)piperazine-1-carboxamide]	< 10 µM
Cc1ccc(NC(=O)N2CCN(C[C@@H]3CCCN(CCCc4ccc(S(C)(=O)=O)cc4)C3)CC2)cc1Cl [Example 324, N-(3-Chloro-4-methylphenyl)-4-[((3R)-1-{3-[4-(methylsulfonyl)phenyl]propyl}piperidin-3-yl)methyl]piperazine-1-carboxamide]	< 10 µM
CC(CC(C)(C)O)N1CCN[C@@H](C(=O)N2CCN(C(=O)Nc3ccc(Cl)c(Cl)c3)CC2)C1 (stereo partly drawn) [Example 269, N-(3,4-dichlorophenyl)-4-{[(2R)-4-(3-hydroxy-1,3-dimethylbutyl)piperazin-2-yl]carbonyl}piperazine-1-carboxamide]	< 10 µM
CCC(C)N1CCOC(CN2CCN(C(=O)Nc3ccc(F)c(Cl)c3)CC2)C1 (stereo in doubt) [Example 236, N-(3-chloro-4-fluorophenyl)-4-({(2R)-4-[(1R)-1-methylpropyl]morpholin-2-yl}methyl)piperazine-1-carboxamide]	< 10 µM
CC(C)N1CCO[C@@H](CN2CCN(C(=O)Nc3cccs3)CC2)C1 [Example 188, 4-{[(2S)-4-isopropylmorpholin-2-yl]methyl}-N-2-thienylpiperazine-1-carboxamide]	< 10 µM
Cc1ccc(NC(=O)N2CCN(C[C@H]3CN(C(C)C)CCO3)CC2)cc1Cl [Example 187, N-(3-chloro-4-methylphenyl)-4-{[(2S)-4-isopropylmorpholin-2-yl]methyl}piperazine-1-carboxamide]	< 10 µM

Continued, values first:

IC50	Compound
< 10 µM	O=C(Nc1ccccc1)N1CCN(C[C@@H]2CCCN(CCc3ccc(Cl)c(Cl)c3)C2)CC1 [Example 253, 4-[[(3R)-1-[2-(3,4-dichlorophenyl)ethyl]-3-piperidyl]methyl]-N-phenyl piperazine-1-carboxamide]
< 10 µM	O=C(Nc1ccc(Br)cc1)N1CCN(C[C@@H]2CCCN(C3CC3)C2)CC1 [Example 108, N-(4-bromophenyl)-4-{[(3S)-1-cyclopropylpiperidin-3-yl]methyl}piperazine-1-carboxamide]
< 10 µM	O=C(Nc1ccc(Cl)c(Cl)c1)N1CCN(C(=O)[C@H]2CN(C3CCOCC3)CCN2)CC1 [Example 221, N-(3,4-dichlorophenyl)-4-{[(2R)-4-(tetrahydro-2H-pyran-4-yl)piperazin-2-yl]carbonyl}piperazine-1-carboxamide]
< 10 µM	Cc1ccc(NC(=O)N2CCN(C[C@@H]3CCCN(C4CC4)C3)CC2)cc1Cl [Example 110, N-(3-chloro-4-methylphenyl)-4-{[(3S)-1-cyclopropylpiperidin-3-yl]methyl}piperazine-1-carboxamide]
< 10 µM	O=C(Nc1ccc(C(F)(F)F)c(Cl)c1)N1CCN(C[C@@H]2CCCN(C3CC3)C2)CC1 [Example 106, N-[3-chloro-4-(trifluoromethyl)phenyl]-4-{[(3S)-1-cyclopropylpiperidin-3-yl]methyl}piperazine-1-carboxamide]
< 10 µM	O=C(Nc1ccc(Cl)c(Cl)c1)N1CCN(C(=O)[C@H]2CN(CC3CCOC3)CCN2)CC1 (stereo partly drawn) [Example 271, N-(3,4-dichlorophenyl)-4-{[(2R)-4-(tetrahydrofuran-3-ylmethyl)piperazin-2-yl]carbonyl}piperazine-1-carboxamide]
< 10 µM	O=C(Nc1ccc(Cl)c(Cl)c1)N1CCN(C(=O)[C@H]2CN(C3CCSCC3)CCN2)CC1 [Example 280, N-(3,4-Dichlorophenyl)-4-{[(2R)-4-(tetrahydro-2H-thiopyran-4-yl)piperazin-2-yl]carbonyl}piperazine-1-carboxamide]
< 10 µM	O=C(Nc1ccc(Cl)c(Cl)c1)N1CCN(C[C@@H]2CCN([C@H]3CC[C@](O)(c4nccs4)CC3)C2)CC1 [Example 229, N-(3,4-dichlorophenyl)-4-({(3S)-1-[cis-4-hydroxy-4-(1,3-thiazol-2-yl)cyclohexyl]pyrrolidin-3-yl}methyl)piperazine-1-carboxamide]
< 10 µM	O=C(Nc1ccc(Cl)c(Cl)c1)N1CCN(C[C@@H]2CCCN(CCc3ccc(Cl)cc3)C2)CC1 [Example 154, 4-({(3R)-1-[2-(4-Chlorophenyl)ethyl]piperidin-3-yl}methyl)-N-(3,4-dichlorophenyl)piperazine-1-carboxamide]
< 10 µM	O=C(Nc1ccc(Cl)c(Cl)c1)N1CCN(C(=O)[C@H]2CN(C3CC3)CCN2)CC1 [Example 135, 4-[(2R)(4-Cyclopropylpiperazin-2-yl)carbonyl]-N-(3,4-dichlorophenyl)piperazine-1-carboxamide]
< 10 µM	O=C(Nc1ccc(Cl)c(Cl)c1)N1CCN(C[C@@H]2CCCN(CCC3CCNCC3)C2)CC1 [Example 205, N-(3,4-Dichlorophenyl)-4-{[(3R)-1-(2-piperidin-4-ylethyl)piperidin-3-yl]methyl}piperazine-1-carboxamide]
< 10 µM	O=C(Nc1ccc(Cl)c(Cl)c1)N1CCN(CC2CCCN(C3CC3)C2)CC1 (stereo in doubt) [Example 139, 1-{[(3R)-1-Cyclopropylpiperidin-3-yl]methyl}-N-(3,4-dichlorophenyl)piperazine-4-carboxamide]
< 10 µM	O=C(Nc1ccc(Cl)c(Cl)c1)N1CCN(C[C@H]2CN(C3CCCC3)CCO2)CC1 [Example 118, 4-{[(2S)-4-cyclopentylmorpholin-2-yl]methyl}-N-(3,4-dichlorophenyl)piperazine-1-carboxamide]
< 10 µM	O=C(Nc1ccc(Cl)c(Cl)c1)N1CCN(C(=O)[C@H]2CN(C3CCC3)CCN2)CC1 [Example 275, 4-{[(2R)-4-Cyclobutylpiperazin-2-yl]carbonyl}-N-(3,4-dichlorophenyl)piperazine-1-carboxamide]
< 10 µM	O=C(Nc1ccc(Cl)c(Cl)c1)N1CCN(C[C@@H]2CCCN(CCOc3ccc(F)cc3)C2)CC1 [Example 171, N-(3,4-Dichlorophenyl)-4-({(3S)-1-[2-(4-fluorophenoxy)ethyl]piperidin-3-yl}methyl)piperazine-1-carboxamide]
